{
  "source": "patent US7371721B2",
  "about": "“Use of GLP-2 and related compounds for the treatment, prevention, diagnosis, and prognosis of bone-related disorders and calcium homeostasis related syndromes” (priority 2000, dated 2008)",
  "key": {"[1]": {"system": "GIP", "experiment": "Total GIP level (antiserum R65)", "type": "in vivo, human", "conditions": "oral 75 g fructose", "description": "(§1) In these Examples, hematology and serum chemistry including glucose were measured using an auto analyzer (Vitros). Serum […] was measured by IRMA (Coat-A-Count®, DPC, Los Angeles, Calif.). Serum C-telopeptide fragments of collagen type I degradation (S-CTX) were measured by ELISA, Serum CrossLaps™ assay (Osteometer BioTech A/S—Denmark). Serum osteocalcin was determined by ELISA, an assay which determines the N-terminal mid segment of the molecule. Serum insulin and c-peptide were both assessed by RIA (Coat-A-Count® for insulin and Double Antibody C-peptide for c-peptide both DPC, Los Angeles, Calif.). Total GIP was measured using the C-terminally directed antiserum R65, which reacts with the intact GIP (1-42) and the N-terminally truncated metabolite, GIP (3-42) (Krarup T, Holst J J 1984 The heterogeneity of gastric inhibitory polypeptide in porcine and human gastrointestinal mucosa evaluated with five different antisera. Regul Pept 9:35-46. ). GLP-2 was measured with a N-terminal specific antiserum code no. 92160, measuring only GLP-2 with an intact N-terminus. GLP-1 in plasma samples was measured using a RIA assay specific for the C-terminus of the GLP-1 molecule, using standards of synthetic GLP-1 (7-36) amide and antiserum no. […] GLP-1 is measured in Example 1 as a marker for the effect of the tested materials on GLP-2 levels. […]"}, "[2]": {"system": "GLP-1", "experiment": "Plasma GLP-1 level (RIA), in Examples 1 and 2 as marker for GLP-2", "type": "in vivo, human", "conditions": "after 2 hours, compared to the baseline of 100% at T0; oral 75 g fructose", "description": "as §1"}, "[3]": {"system": "S-CTX (bone resorption)", "experiment": "Serum S-CTX (Serum CrossLaps ELISA) as marker of bone resorption in human subjects", "type": "in vivo", "description": "as §1"}, "[4]": {"system": "ovariectomized induced bone loss", "experiment": "Ovariectomized induced bone loss in aged rats, 6 week study", "type": "in vivo, female Sprague Dawley rats", "conditions": "6 weeks, in comparison to the untreated controls", "description": "The following is a protocol suitable to test whether GLP-2A at 250 μg/kg s.c. twice daily can inhibit ovariectomized induced bone loss in aged rats.\n• Test articles: GLP-2 analogue (Gly2)GLP-2: […]OH. • Vehicle: 0.5% gelatin/PBS (degassed) Gelatin A: Cat. No. 325910, batch no. 273622 (Unikem, Copenhagen, Denmark). PBS: Dubecco's Phosphate buffered saline (BioWhitaker cat.no.BE17-512F) • Positive control: 17β-estradiol pellet 0.5 mg/60 days release implanted subcutaneous (SE-121 Innovative Research of America) A dose of 250 μg/kg is administered by subcutaneous injections twice daily (10-12 hours apart). The injection site will vary according to the injection scheme. The dose is calculated as follow: the weight ofthe rat in kg=the dose in ml; e.g. 0.301kg=0.30 ml Experimental System: The study is performed in 50 female Sprague Dawley rats in 4 groups each of 12 or 13 rats. Surgery: • The rats are anaesthetized with Hypnorm-Domicum (1 part Hypnorm+1 part Dormicum+2 part sterile dI water. The rats are given 0.15 ml/100 g body weight). Ovariectomy (OVX) or sham operations are performed via a midline incision in the back of the rats. […] The wet weight and length of the small intestine and the colon will be recorded. […] Bones are assessed by PQCT, trabecular strength and histomorphologic analysis."}, "[5]": {"system": "fractures in postmenopausal osteoporosis", "conditions": "cited from earlier work"}, "[6]": {"experiment": "clinical", "conditions": "both sexes, human, in vivo, sc", "description": "as §1"}, "[7]": {"conditions": "in vivo; cited from earlier work"}},
  "note": "No end group written: not given here.",
  "data": [
    {"compound": "O=C(CO)[C@@H](O)[C@H](O)[C@H](O)CO", "note": "[Oral fructose, fructose]", "values": [
      {"measurement": "level of GIP", "setting": "[1]", "result": "almost maintained at baseline"},
      {"measurement": "level of GLP-2 (measured as GLP-1)", "setting": "[2]", "result": 220, "unit": "%"},
      {"measurement": "reduction in S-CTX", "setting": "[3]; after 2 hours, oral 75 g fructose in 300 ml water, fasted healthy women and men", "result": 36, "unit": "%"}
    ]},
    {"compound": "C[C@]12CC[C@@H]3c4ccc(O)cc4CC[C@H]3[C@@H]1CC[C@@H]2O", "note": "[17β-estradiol]", "values": [
      {"measurement": "protection against bone density loss following the OVX procedure", "setting": "[4]", "result": "protected against bone density loss"}
    ]},
    {"compound": "CC[C@H](C)[C@H](NC(=O)[C@H](CCC(=O)O)NC(=O)[C@H](CO)NC(=O)[C@@H](NC(=O)[C@@H](N)CO)C(C)C)C(=O)N[C@@H](CCC(N)=O)C(=O)N[C@@H](CC(C)C)C(=O)N[C@@H](CCSC)C(=O)N[C@@H](Cc1cnc[nH]1)C(=O)N[C@@H](CC(N)=O)C(=O)N[C@@H](CC(C)C)C(=O)NCC(=O)N[C@@H](CCCCN)C(=O)N[C@@H](Cc1cnc[nH]1)C(=O)N[C@@H](CC(C)C)C(=O)N[C@@H](CC(N)=O)C(=O)N[C@@H](CO)C(=O)N[C@@H](CCSC)C(=O)N[C@@H](CCC(=O)O)C(=O)N[C@@H](CCCN=C(N)N)C(=O)N[C@H](C(=O)N[C@@H](CCC(=O)O)C(=O)N[C@@H](Cc1c[nH]c2ccccc12)C(=O)N[C@@H](CC(C)C)C(=O)N[C@@H](CCCN=C(N)N)C(=O)N[C@@H](CCCCN)C(=O)N[C@@H](CCCCN)C(=O)N[C@@H](CC(C)C)C(=O)N[C@@H](CCC(N)=O)C(=O)N[C@@H](CC(=O)O)C(=O)N[C@H](C(=O)N[C@@H](Cc1cnc[nH]1)C(=O)N[C@@H](CC(N)=O)C(=O)N[C@@H](Cc1ccccc1)C(=O)O)C(C)C)C(C)C", "note": "[teriparatide]", "values": [
      {"measurement": "effect on new non-vertebral fractures", "setting": "[5]; by the end of the 21-month treatment period", "result": "−35", "unit": "%"},
      {"measurement": "decrease in occurrence of new vertebral fractures", "setting": "[5]; subcutaneous daily dose 20 μg, Caucasian women (70 years of age)", "result": 65, "unit": "%"},
      {"measurement": "reduction of moderate-to-severe fractures", "setting": "[5]; subcutaneous daily dose 20 μg", "result": 90, "unit": "%"},
      {"measurement": "reduction of multiple vertebral fractures", "setting": "[5]; subcutaneous daily dose 20 μg", "result": 77, "unit": "%"}
    ]},
    {"compound": "His-Gly-Asp-Gly-Ser-Phe-Ser-Asp-Glu-Met-Asn-Thr-Ile-Leu-Asp-Asn-Leu-Ala-Ala-Arg-Asp-Phe-Ile-Asn-Trp-Leu-Ile-Gln-Thr-Lys-Ile-Thr-Asp-OH (HGDGSFSDEMNTILDNLAARDFINWLIQTKITD-OH) [(Gly2)GLP-2]", "values": [
      {"measurement": "protection against bone density loss following the OVX procedure", "setting": "[4]", "result": "protected against bone density loss"}
    ]},
    {"compound": "CC[C@H](C)[C@H](NC(=O)[C@H](Cc1ccccc1)NC(=O)[C@H](CC(=O)O)NC(=O)[C@H](CCCNC(=N)N)NC(=O)[C@H](C)NC(=O)[C@H](C)NC(=O)[C@H](CC(C)C)NC(=O)[C@H](CC(N)=O)NC(=O)[C@H](CC(=O)O)NC(=O)[C@H](CC(C)C)NC(=O)[C@@H](NC(=O)[C@@H](NC(=O)[C@H](CC(N)=O)NC(=O)[C@H](CCSC)NC(=O)[C@H](CCC(=O)O)NC(=O)[C@H](CC(=O)O)NC(=O)[C@H](CO)NC(=O)[C@H](Cc1ccccc1)NC(=O)[C@H](CO)NC(=O)CNC(=O)[C@H](CC(=O)O)NC(=O)[C@H](C)NC(=O)[C@@H](N)Cc1c[nH]cn1)[C@@H](C)O)[C@@H](C)CC)C(=O)N[C@@H](CC(N)=O)C(=O)N[C@@H](Cc1c[nH]c2ccccc12)C(=O)N[C@@H](CC(C)C)C(=O)N[C@H](C(=O)N[C@@H](CCC(N)=O)C(=O)N[C@H](C(=O)N[C@@H](CCCCN)C(=O)N[C@H](C(=O)N[C@H](C(=O)N[C@@H](CC(=O)O)C(=O)O)[C@@H](C)O)[C@@H](C)CC)[C@@H](C)O)[C@@H](C)CC", "note": "[GLP-2]", "values": [
      {"measurement": "reduction in S-CTX", "setting": "[3]; after 3 hours, subcutaneous bolus injection of 400 μg, healthy women and men", "result": 35, "unit": "%"},
      {"measurement": "Tmax", "setting": "[6]", "result": 1, "unit": "h"}
    ]},
    {"compound": "PTH: parathyroid hormone treatment (teriparatide and related compounds) discussed in the cited studies", "values": [
      {"measurement": "hypercalcemia and related symptoms, share of treated individuals", "setting": "[7]", "result": "about 11%"}
    ]}
  ]
}
